Measurements reported in the supplement of paper PMC10307832.

How the values were obtained:
Experiment in all cases: relative viability (nuclei count vs DMSO), 5 days (fraction); higher = more cells survive
IU1-47 + AZD7762 = compound: CC1=CC(=C(N1C2=CC=C(C=C2)Cl)C)C(=O)CN3CCCCC3 [IU1-47] + NC(=O)Nc1cc(-c2cccc(F)c2)sc1C(=O)N[C@H]1CCCNC1 [AZD7762] (partner 0.2 µM)
Procedure, shortened: (§1)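 Five library-drug doses in √10 steps were combined with a fixed anchor-drug dose, or a single drug was given alone, by pin tool to lung cancer cell lines in 1536-well plates the day after seeding. Nuclei were stained and counted after 5 days. Relative viability is the nuclei count in treated wells over that in vehicle wells, taken as the median of duplicate plates.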

IU1-47 + Tozasertib = compound: CC1=CC(=C(N1C2=CC=C(C=C2)Cl)C)C(=O)CN3CCCCC3 [IU1-47] + Cc1cc(Nc2cc(N3CCN(C)CC3)nc(Sc3ccc(NC(=O)C4CC4)cc3)n2)n[nH]1 [Tozasertib] (partner 0.1 µM)
Procedure, shortened: as §1

IU1-47 + Pemetrexed = compound: CC1=CC(=C(N1C2=CC=C(C=C2)Cl)C)C(=O)CN3CCCCC3 [IU1-47] + Nc1nc2[nH]cc(CCc3ccc(C(=O)N[C@@H](CCC(=O)O)C(=O)O)cc3)c2c(=O)[nH]1 [Pemetrexed] (partner 0.2 µM)
Procedure, shortened: as §1

FG-4592 + Phenformin = compound: Cc1nc(C(=O)NCC(=O)O)c(O)c2ccc(Oc3ccccc3)cc12 [FG-4592] + N=C(N)NC(=N)NCCc1ccccc1 [Phenformin] (partner 250 µM)
Procedure, shortened: as §1

Cell Line	relative viability (IU1-47 + AZD7762; first compound 0.08 µM)	relative viability (IU1-47 + AZD7762; first compound 0.253 µM)	relative viability (IU1-47 + AZD7762; first compound 0.8 µM)	relative viability (IU1-47 + AZD7762; first compound 2.53 µM)	relative viability (IU1-47 + AZD7762; first compound 8 µM)	relative viability (IU1-47 + Tozasertib; first compound 0.08 µM)	relative viability (IU1-47 + Tozasertib; first compound 0.253 µM)	relative viability (IU1-47 + Tozasertib; first compound 0.8 µM)	relative viability (IU1-47 + Tozasertib; first compound 2.53 µM)	relative viability (IU1-47 + Tozasertib; first compound 8 µM)	relative viability (IU1-47 + Pemetrexed; first compound 0.08 µM)	relative viability (IU1-47 + Pemetrexed; first compound 0.253 µM)	relative viability (IU1-47 + Pemetrexed; first compound 0.8 µM)	relative viability (IU1-47 + Pemetrexed; first compound 2.53 µM)	relative viability (IU1-47 + Pemetrexed; first compound 8 µM)	relative viability (FG-4592 + Phenformin; first compound 0.08 µM)	relative viability (FG-4592 + Phenformin; first compound 0.253 µM)	relative viability (FG-4592 + Phenformin; first compound 0.8 µM)	relative viability (FG-4592 + Phenformin; first compound 2.53 µM)	relative viability (FG-4592 + Phenformin; first compound 8 µM)
HCC-827	0.174	0.213	0.227	0.202	0.197	0.458	0.424	0.449	0.409	0.383	0.26	0.282	0.275	0.291	0.26	0.37	0.376	0.38	0.367	0.401
HOP-62	0.488	0.712	0.619	0.493	0.608	0.351	0.404	0.384	0.412	0.354	0.398	0.454	0.373	0.223	0.365	0.601	0.654	0.672	0.657	0.665
LC-2-ad	0.851	0.84	0.866	–	0.857	0.465	0.396	0.465	0.444	0.377	0.284	0.283	0.268	–	0.262	0.571	0.541	–	0.527	0.658
LCLC-97TM1	0.31	0.286	0.294	0.0924	0.245	0.217	0.235	0.251	0.358	0.198	0.173	0.15	0.154	–	0.172	0.415	0.385	0.44	0.423	0.426
LCLC-103H	0.84	0.948	0.797	0.54	0.807	0.576	0.586	0.531	0.503	0.451	0.474	0.464	0.469	0.449	0.519	0.3	0.325	0.248	0.294	0.319
LK-2	0.488	0.557	0.542	0.368	0.305	0.163	0.168	0.155	0.168	0.166	0.327	0.308	0.3	0.306	0.156	0.365	0.449	–	0.33	0.264
NCI-H520	–	–	–	–	–	0.429	0.419	0.471	0.461	0.363	0.548	0.711	0.831	0.847	0.577	0.31	0.595	–	0.51	0.465
NCI-H661	–	–	–	–	–	0.354	0.373	0.355	0.358	0.375	0.925	0.961	0.977	0.925	0.947	0.271	0.281	0.264	0.274	0.276
NCI-H727	0.582	0.539	0.539	0.512	0.58	0.655	0.562	0.589	0.58	0.568	–	–	–	–	–	0.543	0.341	0.378	0.643	0.609
